Experimental findings from ChEMBL document CHEMBL5584275, “Design, Synthesis, and Evaluation of a New Chemotype Fluorescent Ligand for the P2Y2 Receptor” (ACS Med Chem Lett, 2024) are described below.

As usually defined, the Ki is a dissociation constant, usually derived from enzyme kinetics or from competition with a known ligand. High values mean weaker binding, low ones tighter binding. The Kd is the equilibrium constant for the complex coming apart. The low end stands for higher affinity, the high end for lower affinity.

The target in experiment [1] is T1, P2Y purinoceptor 2 (Homo sapiens, UniProt P41231).
T1 sequence (P41231 whole entry): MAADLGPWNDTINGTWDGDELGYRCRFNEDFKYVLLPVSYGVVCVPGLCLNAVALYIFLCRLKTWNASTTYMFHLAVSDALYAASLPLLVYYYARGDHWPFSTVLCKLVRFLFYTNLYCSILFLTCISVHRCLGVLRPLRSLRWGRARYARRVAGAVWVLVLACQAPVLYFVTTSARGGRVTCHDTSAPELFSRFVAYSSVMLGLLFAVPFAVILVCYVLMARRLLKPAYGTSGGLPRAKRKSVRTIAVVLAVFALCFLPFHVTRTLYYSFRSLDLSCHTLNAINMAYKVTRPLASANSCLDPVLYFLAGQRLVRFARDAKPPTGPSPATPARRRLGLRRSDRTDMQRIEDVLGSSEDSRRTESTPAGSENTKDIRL
Description: Displacement of (E)-N6-(5-(bis(4-chlorophenyl)methyl)thiazol-2-yl)-N2-(6-(2-(4-(2-(5,5-difluoro-7-(thiophen-2-yl)-5H-4lambda4,5lambda4-dipyrrolo[1,2-c:2',1'-f][1,3,2]diazaborinin-3-yl)vinyl)phenoxy)acetamido)hexanoyl)-L-lysine from NLuc fused P2Y2R (unknown origin) extracted from 1321N1 cell membrane incubated for 1 hr by NanoBRET assay
Experiment [2] concerns the target T1, P2Y purinoceptor 2. This is another data set of the same source.
Description: Binding affinity to NanoLuc-fused P2Y2R (unknown origin) extracted from 1321N1 cell membrane incubated for 1 hr by NanoBRET assay
Experiment [3] concerns the target T1, P2Y purinoceptor 2. Nature of the experiment: Displacement of 2-((5-(7-chloro-2-((3-((2-(5-(3-(5,5-difluoro-7,9-dimethyl-5H-4lambda4,5lambda4-dipyrrolo[1,2-c:2',1'-f][1,3,2]diazaborinin-3-yl)propanamido)pentanamido)ethyl)amino)-3-oxopropyl)amino)-4H-benzo[5,6]cyclohepta[1,2-d]thiazol-4-yl)-2-oxo-4-thioxo-3,4-dihydropyrimidin-1(2H)-yl)methyl)-N-(1H-tetrazol-5-yl)thiazole-4-carboxamide from NLuc fused P2Y2R (unknown origin) extracted from 1321N1 cell membrane incubated for 1 hr by NanoBRET assay. Background: Bioluminescence resonance energy transfer reports proximity on the nanometre scale.

In experiment [1], `CCOCCNc1nc2c(s1)C=Cc1cc(Cl)ccc1[C@@H]2c1cn(C)c(=O)[nH]c1=S` (racemic) had a Ki of 9.12 µM.
`CN(C)c1ccc2c(-c3ccc(C(=O)N[C@@H](CCCNc4ncc(C(c5ccc(Cl)cc5)c5ccc(Cl)cc5)s4)C(=O)O)cc3C(=O)[O-])c3ccc(=[N+](C)C)cc-3oc2c1` gave a Kd in experiment [2] of 4.17 µM.
`CCOCCNc1ncc(C(c2ccc(Cl)cc2)c2ccc(Cl)cc2)s1` showed a Ki in experiment [3] of approximately 1000 µM.
In experiment [2], `O=C(COc1ccc(/C=C/C2=[N+]3C(=Cc4ccc(-c5cccs5)n4[B-]3(F)F)C=C2)cc1)NCCCCCC(=O)N[C@@H](CCNc1ncc(C(c2ccc(Cl)cc2)c2ccc(Cl)cc2)s1)C(=O)O` gave a Kd of 2.29 µM.
`O=C(COc1ccc(/C=C/C2=[N+]3C(=Cc4ccc(-c5cccs5)n4[B-]3(F)F)C=C2)cc1)NCCCCCC(=O)N[C@@H](CCCNc1ncc(C(c2ccc(Cl)cc2)c2ccc(Cl)cc2)s1)C(=O)O` showed a Kd in experiment [2] of 0.955 µM. Further, in experiment [3], the Ki was 3.31 µM.
